Measurements: the supplement of paper PMC4862054

Key:
MCF-10A = conditions: 72 h
Procedure: (§1)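 Drug sensitivity and resistance testing (DSRT) of breast cancer cell lines in 384-well plates, 5 concentrations in 10-fold dilutions over a compound-specific 10,000-fold range. After 72 h, cytotoxicity was read by CellTox Green fluorescence and viability by CellTiter-Glo luminescence (multiplexed), normalised to DMSO and benzethonium chloride controls. EC50 is the inflection point of the fitted dose-response curve (bottom asymptote free, so it can be relative for partial curves) and is censored at the highest tested concentration. Rows with DSS 0 (no meaningful response) were excluded.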

MFM-223 [1] = conditions: 72 h
Procedure: as §1

CAL-51 [2] = conditions: 72 h
Procedure: as §1

MDA-MB-231 [3] = conditions: 72 h
Procedure: as §1

BT-549 [4] = conditions: 72 h
Procedure: as §1

MDA-MB-468 [5] = conditions: 72 h
Procedure: as §1

Hs578T [6] = conditions: 72 h
Procedure: as §1

CAL-85-1 [7] = conditions: 72 h
Procedure: as §1

HCC1599 [8] = conditions: 72 h
Procedure: as §1

BT-474 [9] = conditions: 72 h
Procedure: as §1

HCC1143 [10] = conditions: 72 h
How it was run: (§2)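 Viability of breast cancer cell lines was measured with CellTiter-Blue after 72 h of incubation on compound-loaded 384-well plates. Cells were seeded in 20 µl onto compound dissolved in 5 µl medium, and 2.5 µl reagent was added for 2 h at 37 °C before reading at 560/590 nm. EC50 was fitted from percent-inhibition dose-response data censored at the highest concentration, normalised per plate to vehicle and a positive kill control, with zero drug sensitivity score rows dropped.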

MFM-223 [11] = conditions: 72 h; remark: listed apart in the source
How it was run: as §2

SK-BR-3 = conditions: 72 h
How it was run: as §2

MDA-MB-231 [12] = conditions: 72 h; remark: listed apart in the source
How it was run: as §2

BT-549 [13] = conditions: 72 h; remark: listed apart in the source
How it was run: as §2

HCC1937 = conditions: 72 h
How it was run: as §2

MDA-MB-468 [14] = conditions: 72 h; remark: listed apart in the source
How it was run: as §2

MDA-MB-436 [15] = conditions: 72 h
How it was run: as §2

Hs578T [16] = conditions: 72 h; remark: listed apart in the source
How it was run: as §2

HCC1599 [17] = conditions: 72 h; remark: listed apart in the source
How it was run: as §2

CAL-120 = conditions: 72 h
How it was run: as §2

BT-474 [18] = conditions: 72 h; remark: listed apart in the source
How it was run: as §2

MDA-MB-231 [19] = assay: normalised viability (% of control), CellTiter-Blue; higher = more viable cells (about 100 = DMSO control); conditions: incubation time: 72 h
How it was run: (§3)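 Each value is normalised viability at a single listed concentration of the series. Breast cancer cell lines in 384-well plates were incubated 72 h with compound and read by CellTiter-Blue fluorescence at 560/590 nm, with vehicle set to 100 and a positive kill control to 0 on every plate.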

DU-4475 [20] = assay: as above; conditions: incubation time: 72 h
How it was run: as §3

CAL-85-1 [21] = assay: as above; conditions: incubation time: 72 h
How it was run: as §3

HDQ-P1 [22] = assay: as above; conditions: incubation time: 72 h
How it was run: as §3

CAL-51 [23] = conditions: 72 h; remark: listed apart in the source
How it was run: as §2

DU-4475 [24] = conditions: 72 h
How it was run: as §2

CAL-85-1 [25] = conditions: 72 h; remark: listed apart in the source
How it was run: as §2

CAL-148 [26] = conditions: 72 h
How it was run: as §2

HDQ-P1 [27] = conditions: 72 h
How it was run: as §2

HCC1143 [28] = conditions: 72 h; remark: listed apart in the source
How it was run: (§4)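 Breast cancer cell lines (20 µl suspension) were seeded into 384-well plates holding compound at 5 concentrations in 10-fold steps over a compound-specific 10,000-fold range, then incubated 72 h. Cell death was read first by CellTox Green fluorescence (485/520 nm), then viability by CellTiter-Glo luminescence after 10 min at room temperature. Each plate was normalised to 0.1 % DMSO and a positive kill control. EC50 was fitted from the dose-response curves and censored at the top concentration.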

MFM-223 [29] = conditions: 72 h; remark: listed apart in the source
How it was run: as §4

DU-4475 [30] = conditions: 72 h; remark: listed apart in the source
How it was run: as §4

CAL-148 [31] = conditions: 72 h; remark: listed apart in the source
How it was run: as §4

HCC1599 [32] = conditions: 72 h; remark: listed apart in the source
How it was run: as §4

HDQ-P1 [33] = conditions: 72 h; remark: listed apart in the source
How it was run: as §4

MDA-MB-436 [34] = conditions: 72 h; remark: listed apart in the source
Procedure: as §1

DU-4475 [35] = conditions: 72 h; remark: listed apart in the source
Procedure: as §1

CC[C@]1(O)C[C@H]2CN(CCc3c([nH]c4ccccc34)[C@@](C(=O)OC)(c3cc4c(cc3OC)N(C=O)[C@H]3[C@@](O)(C(=O)OC)[C@H](OC(C)=O)[C@]5(CC)C=CCN6CC[C@]43[C@@H]65)C2)C1 [Vincristine]
EC50, CellTox Green (MCF-10A): 4.1 nM
EC50, CellTox Green (MFM-223 [1]): 20 nM
EC50, CellTox Green (CAL-51 [2]): 28.1 nM
EC50, CellTox Green (MDA-MB-231 [3]): 5.49 nM
EC50, CellTox Green (BT-549 [4]): 9.1 nM
EC50, CellTox Green (MDA-MB-468 [5]): 9.6 nM
EC50, CellTox Green (Hs578T [6]): 85.1 nM
EC50, CellTox Green (CAL-85-1 [7]): 2.39 nM
EC50, CellTox Green (HCC1599 [8]): 489 nM
EC50, CellTox Green (BT-474 [9]): 4.19 nM
EC50, CellTiter-Blue viability (HCC1143 [10]): 1.62 nM
EC50, CellTiter-Blue viability (MFM-223 [11]): 16.9 nM
EC50, CellTiter-Blue viability (SK-BR-3): 0.608 nM
EC50, CellTiter-Blue viability (MDA-MB-231 [12]): 2.49 nM
EC50, CellTiter-Blue viability (BT-549 [13]): 3.8 nM
EC50, CellTiter-Blue viability (HCC1937): 3.57 nM
EC50, CellTiter-Blue viability (MDA-MB-468 [14]): 0.6 nM
EC50, CellTiter-Blue viability (MDA-MB-436 [15]): 8.21 nM
EC50, CellTiter-Blue viability (Hs578T [16]): 2.72 nM
EC50, CellTiter-Blue viability (HCC1599 [17]): 27.7 nM
EC50, CellTiter-Blue viability (CAL-120): 1 nM
EC50, CellTiter-Blue viability (BT-474 [18]): 0.3 nM
normalised viability (MDA-MB-231 [19]; 100 nM): 15.5%
normalised viability (MDA-MB-231 [19]; 1000 nM): 14.3%
normalised viability (DU-4475 [20]; 3 nM): 94.7%
normalised viability (DU-4475 [20]; 30 nM): 48.9%
normalised viability (CAL-85-1 [21]; 3 nM): 89.9%
normalised viability (CAL-85-1 [21]; 30 nM): 33%
normalised viability (HDQ-P1 [22]; 3 nM): 91.3%
normalised viability (HDQ-P1 [22]; 30 nM): 58.7%
EC50, CellTiter-Blue viability (CAL-51 [23]): 26.7 nM
EC50, CellTiter-Blue viability (DU-4475 [24]): 17.9 nM
EC50, CellTiter-Blue viability (CAL-85-1 [25]): 5.33 nM
EC50, CellTiter-Blue viability (CAL-148 [26]): 8.72 nM
EC50, CellTiter-Blue viability (HDQ-P1 [27]): 11.2 nM
EC50, CellTiter-Glo (HCC1143 [28]): 3.31 nM
EC50, CellTiter-Glo (MFM-223 [29]): 19.9 nM
EC50, CellTiter-Glo (DU-4475 [30]): 157 nM
EC50, CellTiter-Glo (CAL-148 [31]): 6.48 nM
EC50, CellTiter-Glo (HCC1599 [32]): 11.1 nM
EC50, CellTiter-Glo (HDQ-P1 [33]): 2.22 nM

NS(=O)(=O)OC[C@@H]1C[C@@H](n2ccc3c(N[C@H]4CCc5ccccc54)ncnc32)C[C@@H]1O [Pevonedistat]
EC50, CellTox Green (CAL-51 [2]): 82.6 nM
EC50, CellTox Green (MDA-MB-468 [5]): 436 nM
EC50, CellTox Green (MDA-MB-436 [34]): 1510 nM
EC50, CellTox Green (DU-4475 [35]): 327 nM
EC50, CellTox Green (HCC1599 [8]): 1840 nM
EC50, CellTiter-Glo (HCC1143 [28]): 845 nM
EC50, CellTiter-Glo (MFM-223 [29]): 155 nM
EC50, CellTiter-Glo (DU-4475 [30]): 137 nM
EC50, CellTiter-Glo (HCC1599 [32]): 365 nM
EC50, CellTiter-Glo (HDQ-P1 [33]): 1560 nM
